Here are results for 6 compounds from patent US7589123B2, “Chemical compounds” (Phytopharm PLC, priority 2006, dated 2009).

For one series, the target named is T1, 5-lipoxygenase (Homo sapiens, UniProt P09917).
T1 construct: endogenous in cells; host or cells: human peripheral blood mononuclear leukocytes (PBMLs)
T1 sequence (P09917 1-674): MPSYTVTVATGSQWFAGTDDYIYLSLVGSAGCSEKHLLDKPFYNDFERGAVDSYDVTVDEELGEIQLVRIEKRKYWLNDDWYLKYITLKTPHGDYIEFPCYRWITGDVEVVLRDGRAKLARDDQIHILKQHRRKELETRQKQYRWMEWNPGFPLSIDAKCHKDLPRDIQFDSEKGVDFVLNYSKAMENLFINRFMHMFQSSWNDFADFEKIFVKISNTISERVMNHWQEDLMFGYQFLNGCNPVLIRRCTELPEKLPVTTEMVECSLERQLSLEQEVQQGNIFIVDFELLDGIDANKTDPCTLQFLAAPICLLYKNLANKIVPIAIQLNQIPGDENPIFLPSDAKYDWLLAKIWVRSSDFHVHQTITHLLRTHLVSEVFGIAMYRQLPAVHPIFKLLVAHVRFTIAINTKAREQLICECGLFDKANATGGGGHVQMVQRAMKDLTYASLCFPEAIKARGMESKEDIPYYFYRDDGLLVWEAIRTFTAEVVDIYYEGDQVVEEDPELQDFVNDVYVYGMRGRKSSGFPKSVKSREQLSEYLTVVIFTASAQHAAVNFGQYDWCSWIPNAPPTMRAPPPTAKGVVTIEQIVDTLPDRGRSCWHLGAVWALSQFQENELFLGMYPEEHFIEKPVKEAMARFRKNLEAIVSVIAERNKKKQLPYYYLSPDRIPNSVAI
Briefly: 5-lipoxygenase activity (LTB4) in human peripheral blood mononuclear leukocytes (Assay 6). As to conditions: human PBMLs, A23187 30 μM, read-out: Inhibition of 5-LO (%). It is filed as cell-based. In outline:
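Human PBMLs (5×10^6 cells, Ficoll-isolated) stimulated with 30 μM A23187 plus compound at 3 or 30 μM or 0.1% DMSO in HBSS pH 7.4, 37° C., 15 min. After NaOH neutralisation and centrifugation, supernatant LTB4 measured by enzyme immunoassay.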

The subject of the next series is WI-38 cells. Briefly: Viability of WI-38 cells, Alamar Blue (Assay 5). It is filed as cell-based, human. In outline: (§1)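 WI-38 fibroblasts stimulated overnight at 37 °C with 1 nM IL-1α plus test compound at 3 and 30 μM in MEM with 10% FBS, pH 7.3; released PGE2 in supernatant quantified by radioimmunoassay as percent inhibition. Viability then checked by Alamar Blue, 4 h at 37 °C, fluorescence ex 530/em 590 nm.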
For orientation: The colour change of resazurin is a common sign of viable cells or microbes.

Series [1] relates to histamine-induced contractions in guinea pig ileum. As to the kind of experiment: Inhibition of histamine-induced contractions in guinea pig ileum (Assay 3). As to conditions: Cavia porcellus, histamine 1.7 μM, read-out: Inhibition of histamine-induced contraction (%). The method in brief:
(§2)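 Isolated male guinea pig ileum strips in Krebs at 32° C, pH 7.4, 1 g resting tension, isotonic recording. Contraction to test compound (3 and 30 μM) alone recorded, then inhibition of responses to histamine 1.7 μM or 5-HT 2.6 μM (~EC60-70, 5 min) measured in its continued presence.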

Series [2] has as its system α-smooth muscle actin (α-SMA) mRNA. Briefly: Anti-remodelling activity in human lung fibroblasts (HFL1): TGFβ-induced α-SMA mRNA (Assay 4). It is filed as cell-based. As to conditions: Homo sapiens, HFL1 cells, TGFβ 10 ng/ml, 24 h, read-out: Inhibition of α-SMA mRNA synthesis (%). The method in brief: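 Real-time RT-PCR of α-SMA mRNA, GAPDH as reference, measured after 24 h exposure of low-serum-primed HFL1 cells to 10 ng/ml TGFβ with test compounds (3 and 30 μM) in 10% FBS medium. Readout is inhibition of TGFβ-driven α-SMA mRNA overexpression.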

For series [3], the system named is IL-1α-induced PGE2 release. Briefly: IL-1α-induced PGE2 release in human diploid lung fibroblasts (WI-38) (Assay 5). It is filed as cell-based. Particulars: Homo sapiens, WI-38 cells, IL-1α 1 nM, overnight. In outline: as §1
The target in a further series is TRPV1 receptor (Rattus norvegicus, UniProt O35433). Briefly: TRPV1 modulation in DRG neurones: CGRP release in absence and presence of capsaicin (Assay 2). Also noted: The culture used for this experiment contained sensory neurones, Schwann cells and fibroblasts; endogenous in cells; host or cells: primary rat DRG sensory neurone culture (with Schwann cells and fibroblasts). Format: cell-based. As to conditions: 20 min; for inhibition at 3 µM: 3 μM with capsaicin 1 μM; for inhibition at 3 µM / inhibition at 30 µM: −ve: inhibition, +ve: potentiation of capsaicin response, read-out: Effect of test compounds on capsaicin (1 μM)-induced CGRP release (%); for inhibition at 30 µM: 30 μM with capsaicin 1 μM; for Emax at 3 µM: test compound alone 3 μM; for Emax at 3 µM / Emax at 30 µM: rat DRG sensory neurones, read-out: CGRP release (% of capsaicin (1 μM) response); for Emax at 30 µM: test compound alone 30 μM.
TRPV1 receptor, sequence (O35433 whole entry): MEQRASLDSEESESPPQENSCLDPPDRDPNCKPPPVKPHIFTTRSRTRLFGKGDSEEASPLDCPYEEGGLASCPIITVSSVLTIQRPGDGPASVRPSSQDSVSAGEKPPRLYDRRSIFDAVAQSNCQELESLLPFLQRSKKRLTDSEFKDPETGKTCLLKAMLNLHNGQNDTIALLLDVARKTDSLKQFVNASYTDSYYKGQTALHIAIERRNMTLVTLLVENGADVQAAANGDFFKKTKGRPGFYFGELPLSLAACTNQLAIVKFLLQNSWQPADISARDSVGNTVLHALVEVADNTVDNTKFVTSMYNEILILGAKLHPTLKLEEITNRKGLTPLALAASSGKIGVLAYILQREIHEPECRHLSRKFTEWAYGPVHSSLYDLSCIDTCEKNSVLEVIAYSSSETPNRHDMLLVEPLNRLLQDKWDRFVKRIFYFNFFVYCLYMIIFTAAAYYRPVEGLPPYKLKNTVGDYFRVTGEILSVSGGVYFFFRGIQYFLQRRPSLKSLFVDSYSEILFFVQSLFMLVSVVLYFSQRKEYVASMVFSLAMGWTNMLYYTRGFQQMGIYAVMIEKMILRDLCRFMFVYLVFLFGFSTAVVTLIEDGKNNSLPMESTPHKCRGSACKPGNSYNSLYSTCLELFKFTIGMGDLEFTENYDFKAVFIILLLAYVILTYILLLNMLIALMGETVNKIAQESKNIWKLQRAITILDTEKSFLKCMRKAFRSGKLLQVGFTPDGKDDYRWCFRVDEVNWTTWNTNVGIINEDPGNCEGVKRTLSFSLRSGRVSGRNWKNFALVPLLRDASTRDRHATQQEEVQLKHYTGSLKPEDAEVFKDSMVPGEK

The test system of series [4] is 5-HT-induced contractions in guinea pig ileum. Briefly: Inhibition of 5-HT-induced contractions in guinea pig ileum (Assay 3). Particulars: Cavia porcellus, 5-HT 2.6 μM, read-out: Inhibition of 5-HT-induced contraction (%). The method in brief:
as §2

Consider `COc1cc(CCC(=O)CC(=O)c2ccc(Cl)cc2C)ccc1O` [Compound 76, 1-(4-Chloro-2-methylphenyl)-5-(4-hydroxy-3-methoxyphenyl)pentane-1,3-dione], for which the inhibition at 3 µM is 74% on 5-lipoxygenase; 9% in series [1]; -1% in series [2]; 99% in series [3]; 9% on TRPV1 receptor; 26% in series [4]. The inhibition at 30 µM at 5-lipoxygenase came to 99%; in series [1], 81%; in series [2], 94%; in series [3], 101%; at TRPV1 receptor, 4%; in series [4], 72%. For the same compound, the “Decrease in cell viability (%)” value is 4% in the series with WI-38 cells (3 μM) and 26% in the series on WI-38 cells (30 μM). Also, the Emax at 3 µM on TRPV1 receptor turned out to be 55%. Moreover, the Emax at 30 µM at TRPV1 receptor turned out to be 107%.

Turning to `COc1cc(CCC(=O)C(C)(C)C(=O)c2ccc(C)cc2)ccc1O` [Compound 81, 5-(4-Hydroxy-3-methoxyphenyl)-2,2-dimethyl-1-p-tolylpentane-1,3-dione], the inhibition at 3 µM at 5-lipoxygenase was 64%; in series [1], 22%; in series [2], -2%; in series [3], 62%; at TRPV1 receptor it was 25%; in series [4], 21%. For the same compound, the inhibition at 30 µM at 5-lipoxygenase was 97%; in series [1], 94%; in series [2], 55%; in series [3] it was 101%; on TRPV1 receptor, -22%; in series [4] it was 95%. Also, the “Decrease in cell viability (%)” value in the series with WI-38 cells (3 μM) is reported as 3%; in the series on WI-38 cells (30 μM) it was −7%. In addition, the Emax at 3 µM on TRPV1 receptor turned out to be 45%. For the same compound, the Emax at 30 µM at TRPV1 receptor came to 104%.

Consider `COc1cc(CCC(=O)C(C)C(=O)C(C)(C)C)ccc1O` (centres unmarked) [Compound 4, 1-(4-Hydroxy-3-methoxyphenyl)-4,6,6-trimethyl-heptane-3,5-dione], for which the inhibition at 3 µM is 15% on 5-lipoxygenase; 7% in series [1]; -3% in series [2]; 49% in series [3]; -58% on TRPV1 receptor; 0% in series [4]. Also, the inhibition at 30 µM on 5-lipoxygenase is 73%; in series [1] it was 14%; in series [2], 17%; in series [3], 96%; on TRPV1 receptor it was -24%; in series [4] it was 10%. For the same compound, the “Decrease in cell viability (%)” value is listed as −3% in the series on WI-38 cells (3 μM) and 10% in the series with WI-38 cells (30 μM). Further, the Emax at 3 µM on TRPV1 receptor is 36%. Moreover, the Emax at 30 µM at TRPV1 receptor was determined as 63%.

In the case of `COc1cc(CCC(=O)CC(=O)c2ccc(Cl)cc2)ccc1O` [Compound 21, 1-(4-Chlorophenyl)-5-(4-hydroxy-3-methoxyphenyl)pentane-1,3-dione], the inhibition at 3 µM turned out to be 68% on 5-lipoxygenase; 9% in series [1]; 6% in series [2]; 88% in series [3]; 6% on TRPV1 receptor; 9% in series [4]. The inhibition at 30 µM at 5-lipoxygenase was 98%; in series [1], 68%; in series [2], 54%; in series [3] it was 99%; at TRPV1 receptor it was -56%; in series [4], 49%. Besides, the results for the “Decrease in cell viability (%)” value in the series with WI-38 cells (3 μM) and in the series on WI-38 cells (30 μM) were 3% and 11%, respectively. The Emax at 3 µM on TRPV1 receptor came to 50%. For the same compound, the Emax at 30 µM on TRPV1 receptor was 150%.

Turning to `COc1cc(CCC(=O)C(Cc2ccccc2)C(=O)c2ccccc2)ccc1O` (centres unmarked) [Compound 13, 2-Benzyl-5-(4-hydroxy-3-methoxyphenyl)-1-phenylpentane-1,3-dione], the inhibition at 3 µM on 5-lipoxygenase was determined as 51%; in series [1], 6%; in series [2], 14%; in series [3], 73%; on TRPV1 receptor, 48%; in series [4], 15%. Besides, the inhibition at 30 µM on 5-lipoxygenase is 98%; in series [1] it was 78%; in series [2], 77%; in series [3], 99%; on TRPV1 receptor, -67%; in series [4] it was 66%. Besides, the “Decrease in cell viability (%)” value with WI-38 cells (3 μM) is recorded as −4%; with WI-38 cells (30 μM), −3%. The Emax at 3 µM at TRPV1 receptor turned out to be 75%. Also, the Emax at 30 µM at TRPV1 receptor amounted to 245%.

Turning to `COc1cc(CCC(=O)CC(=O)C(c2ccccc2)c2ccccc2)ccc1O` [Compound 30, 6-(4-Hydroxy-3-methoxyphenyl)-1,1-diphenyl-hexane-2,4-dione], the inhibition at 3 µM is 50% on 5-lipoxygenase; 8% in series [1]; 84% in series [2]; 46% in series [3]; 49% at TRPV1 receptor; 6% in series [4]. The inhibition at 30 µM is 99% on 5-lipoxygenase; 89% in series [1]; 100% in series [2]; 99% in series [3]; -150% on TRPV1 receptor. Also, the “Decrease in cell viability (%)” value in the series with WI-38 cells (3 μM) is reported as −10%; in the series with WI-38 cells (30 μM), 29%. Moreover, at TRPV1 receptor, the Emax at 3 µM is 70%. For the same compound, on TRPV1 receptor, the Emax at 30 µM turned out to be 122%.
